This note sets out measurements from patent US20090076009A1, “THIAZOLE DERIVATIVES AND THEIR USE AS ANTI-TUMOUR AGENTS” (priority 2006, published 2009).

The test system of assay [1] is phosphorylation of Serine 473 in Akt in MDA-MB-468 human breast adenocarcinoma cell line. As to the kind of experiment: In Vitro Phospho-Ser473 Akt Assay. Format: cell-based. To be noted: Test (c), MDA-MB-468 cells, read-out: IC50, inhibition of phosphorylation of Serine 473 in Akt. As to the method: (c) In Vitro Phospho-Ser473 Akt Assay
This assay determines the ability of test compounds to inhibit phosphorylation of Serine 473 in Akt as assessed using Acumen Explorer technology (TTP LabTech Limited, Royston, Herts, SG8 6EE, UK), a plate reader that can be used to rapidly quantitate features of images generated by laser-scanning.
A MDA-MB-468 human breast adenocarcinoma cell line (LGC Promochem, Teddington, Middlesex, UK, Catalogue No. HTB-132) was routinely maintained at 37° C. with 5% CO2 up to a confluency of 70-90% in DMEM containing 10% FCS and 1% L-glutamine.
For the assay, the cells were detached from the culture flask using ‘Accutase’ (Innovative Cell Technologies Inc., San Diego, Calif., USA; Catalogue No. AT104) using standard tissue culture methods and resuspended in media to give 5.5×10^4 cells per ml. Aliquots (90 μl) were seeded into each of the inner 60 wells of a black ‘Costar’ 96-well plate (Corning Inc., NY, USA; Catalogue No. 3904) to give a density of 5000 cells per well. Aliquots (90 μl) of culture media were placed in the outer wells to prevent edge effects. [An alternative cell handling procedure involved the maintenance of the cells in a ‘SelecT’ robotic device (The Automation Partnership, Royston, Herts SG8 5WY, UK). Cells were resuspended in media to give 5×10^4 cells per ml. Aliquots (100 μl) were seeded into the wells of a black ‘Costar’ 96-well plate.] […]

Assay [2] has as its target mTOR PI kinase-related kinase (Homo sapiens, UniProt P42345). As to the kind of experiment: In Vitro mTOR PI kinase-related Kinase Assay (AlphaScreen). It is filed as biochemical. To be noted: Test (b); read-out: IC50 versus mTOR PI kinase-related kinase. As to the method:
(b) In Vitro mTOR PI kinase-related Kinase Assay The assay used AlphaScreen technology (Gray et al., Analytical Biochemistry, 2003, 313: 234-245) to determine the ability of test compounds to inhibit phosphorylation by recombinant mTOR. […]
Each reaction was stopped by the addition of 10 μl of a mixture of EDTA (50 mM), bovine serum albumin (BSA; 0.5 mg/ml) and Tris-HCl pH7.4 buffer (50 mM) containing p70 S6 Kinase (T389) IA5 Monoclonal Antibody (Cell Signalling Technology, Catalogue No. 9206B) and AlphaScreen Streptavidin donor and Protein A acceptor beads (200 ng; Perkin Elmer, Catalogue No. 6760002B and 6760137R respectively) were added and the assay plates were left for about 20 hours at room temperature in the dark. The resultant signals arising from laser light excitation at 680 nm were read using a Packard Envision instrument.
Phosphorylated biotinylated peptide is formed in situ as a result of mTOR mediated phosphorylation. […] Upon laser light excitation at 680 nm, the donor bead: acceptor bead complex produces a signal that can be measured. […] In the presence of an mTOR kinase inhibitor, signal strength is reduced. mTOR enzyme inhibition for a given test compound was expressed as an IC50 value.

Assay [3] deals with T1, p110α Type Ia human PI3K (Homo sapiens, UniProt P42336).
T1 construct: full length DNA of each of the p110α, p110β and p110δ Type Ia human PI3K p110 isoforms; 6-His; made in house; Grp1 PH domain in E. coli
As to the kind of experiment: In Vitro PI3K Enzyme Assay (AlphaScreen). Format: biochemical. To be noted: Test (a); read-out: IC50 versus p110α Type Ia human PI3K. From the text: (a) In Vitro PI3K Enzyme Assay
The assay used AlphaScreen technology (Gray et al., Analytical Biochemistry, 2003, 313: 234-245) to determine the ability of test compounds to inhibit phosphorylation by recombinant Type I PI3K enzymes of the lipid PI(4,5)P2.
DNA fragments encoding human PI3K catalytic and regulatory subunits were isolated from cDNA libraries using standard molecular biology and PCR cloning techniques. The selected DNA fragments were used to generate baculovirus expression vectors. In particular, full length DNA of each of the p110α, p110β and p110δ Type Ia human PI3K p110 isoforms (EMBL Accession Nos. HSU79143, S67334, Y10055 for p110α, p110β and p110δ respectively) were sub-cloned into a pDEST10 vector (Invitrogen Limited, Fountain Drive, Paisley, UK). The vector is a Gateway-adapted version of Fastbac1 containing a 6-His epitope tag. […]
Each reaction was stopped by the addition of 10 μl of a mixture of EDTA (100 mM), bovine serum albumin (BSA, 0.045%) and Tris-HCl pH7.6 buffer (40 mM). […] The resultant signals arising from laser light excitation at 680 nm were read using a Packard AlphaQuest instrument. […]

T1 sequence (P27986 whole entry, the tested form may be a part, canonical isoform): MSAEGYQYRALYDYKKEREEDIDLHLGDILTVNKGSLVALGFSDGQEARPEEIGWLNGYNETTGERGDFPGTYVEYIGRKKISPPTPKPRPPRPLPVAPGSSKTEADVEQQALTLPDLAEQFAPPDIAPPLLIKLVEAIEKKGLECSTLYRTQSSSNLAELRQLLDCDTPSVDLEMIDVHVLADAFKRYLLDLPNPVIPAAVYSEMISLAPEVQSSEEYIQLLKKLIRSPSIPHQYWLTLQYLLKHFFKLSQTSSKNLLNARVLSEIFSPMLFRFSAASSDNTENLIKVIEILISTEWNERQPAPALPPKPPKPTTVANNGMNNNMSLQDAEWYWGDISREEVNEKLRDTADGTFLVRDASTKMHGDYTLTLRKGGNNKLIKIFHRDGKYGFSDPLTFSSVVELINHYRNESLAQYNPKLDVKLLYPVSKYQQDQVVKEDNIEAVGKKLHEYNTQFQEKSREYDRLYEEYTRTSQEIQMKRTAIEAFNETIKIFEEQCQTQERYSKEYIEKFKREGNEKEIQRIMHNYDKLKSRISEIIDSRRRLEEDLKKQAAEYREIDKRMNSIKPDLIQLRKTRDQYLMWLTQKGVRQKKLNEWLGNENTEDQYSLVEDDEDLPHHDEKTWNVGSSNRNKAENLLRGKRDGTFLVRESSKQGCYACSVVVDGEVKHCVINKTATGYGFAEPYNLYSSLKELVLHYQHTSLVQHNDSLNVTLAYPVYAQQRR
T1 sequence (P42336 whole entry, the tested form may be a part, canonical isoform): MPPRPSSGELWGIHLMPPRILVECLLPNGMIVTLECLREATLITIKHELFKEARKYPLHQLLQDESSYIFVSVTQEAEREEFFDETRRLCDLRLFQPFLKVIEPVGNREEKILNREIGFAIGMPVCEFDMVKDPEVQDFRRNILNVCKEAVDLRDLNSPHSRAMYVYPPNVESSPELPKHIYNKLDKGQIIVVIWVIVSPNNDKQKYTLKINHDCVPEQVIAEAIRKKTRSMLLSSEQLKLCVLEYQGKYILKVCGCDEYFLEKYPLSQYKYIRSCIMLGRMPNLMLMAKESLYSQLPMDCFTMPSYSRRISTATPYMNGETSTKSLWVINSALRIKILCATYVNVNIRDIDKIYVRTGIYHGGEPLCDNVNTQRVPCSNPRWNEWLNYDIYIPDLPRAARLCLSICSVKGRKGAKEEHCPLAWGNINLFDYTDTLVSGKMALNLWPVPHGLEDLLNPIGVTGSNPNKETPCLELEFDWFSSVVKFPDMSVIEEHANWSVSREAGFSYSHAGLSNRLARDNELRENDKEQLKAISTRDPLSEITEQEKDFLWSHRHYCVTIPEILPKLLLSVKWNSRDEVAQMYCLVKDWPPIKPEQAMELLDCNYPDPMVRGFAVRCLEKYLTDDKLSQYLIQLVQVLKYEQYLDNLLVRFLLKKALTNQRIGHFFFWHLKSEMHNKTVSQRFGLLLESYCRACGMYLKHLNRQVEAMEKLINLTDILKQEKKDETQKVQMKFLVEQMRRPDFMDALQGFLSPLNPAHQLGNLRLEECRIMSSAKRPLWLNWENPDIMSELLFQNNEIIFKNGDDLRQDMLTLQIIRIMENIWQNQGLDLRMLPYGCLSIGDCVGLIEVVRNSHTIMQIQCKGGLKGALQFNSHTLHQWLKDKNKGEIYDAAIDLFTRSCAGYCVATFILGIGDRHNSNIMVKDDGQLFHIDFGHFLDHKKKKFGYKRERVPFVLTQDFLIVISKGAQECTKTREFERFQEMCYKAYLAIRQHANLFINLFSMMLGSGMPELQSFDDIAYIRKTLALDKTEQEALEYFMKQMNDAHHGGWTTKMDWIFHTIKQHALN
Chain of mTOR PI kinase-related kinase (P42345 1362-2549): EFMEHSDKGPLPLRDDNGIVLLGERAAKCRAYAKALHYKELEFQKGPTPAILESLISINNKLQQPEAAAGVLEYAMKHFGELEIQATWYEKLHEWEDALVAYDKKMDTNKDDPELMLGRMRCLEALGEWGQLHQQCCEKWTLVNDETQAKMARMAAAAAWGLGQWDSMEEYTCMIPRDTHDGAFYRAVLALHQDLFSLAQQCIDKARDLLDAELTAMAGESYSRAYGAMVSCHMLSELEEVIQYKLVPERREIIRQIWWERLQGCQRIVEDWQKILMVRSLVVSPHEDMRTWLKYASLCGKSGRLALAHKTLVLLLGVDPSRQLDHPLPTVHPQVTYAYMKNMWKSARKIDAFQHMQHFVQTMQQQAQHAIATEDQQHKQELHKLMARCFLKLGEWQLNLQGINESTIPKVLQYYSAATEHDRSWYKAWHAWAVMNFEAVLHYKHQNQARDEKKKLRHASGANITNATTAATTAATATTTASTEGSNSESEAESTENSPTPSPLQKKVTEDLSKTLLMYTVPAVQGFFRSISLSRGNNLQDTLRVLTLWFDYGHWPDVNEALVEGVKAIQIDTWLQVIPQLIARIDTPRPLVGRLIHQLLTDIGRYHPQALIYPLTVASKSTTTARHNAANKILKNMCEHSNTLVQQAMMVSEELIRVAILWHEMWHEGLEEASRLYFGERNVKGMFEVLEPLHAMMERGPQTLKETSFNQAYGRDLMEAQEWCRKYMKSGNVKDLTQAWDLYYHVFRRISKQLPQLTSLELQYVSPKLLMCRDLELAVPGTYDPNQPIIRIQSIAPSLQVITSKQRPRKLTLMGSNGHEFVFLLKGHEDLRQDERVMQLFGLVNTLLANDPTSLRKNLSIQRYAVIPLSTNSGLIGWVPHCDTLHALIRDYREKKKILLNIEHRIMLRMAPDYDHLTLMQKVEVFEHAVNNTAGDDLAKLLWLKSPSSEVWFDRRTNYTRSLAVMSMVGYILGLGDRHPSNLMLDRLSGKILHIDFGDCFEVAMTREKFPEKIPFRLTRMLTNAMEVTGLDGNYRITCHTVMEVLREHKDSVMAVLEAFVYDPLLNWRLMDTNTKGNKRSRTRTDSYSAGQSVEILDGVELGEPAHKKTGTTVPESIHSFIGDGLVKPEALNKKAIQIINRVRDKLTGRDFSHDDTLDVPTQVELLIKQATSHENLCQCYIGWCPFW

As for `CC(=O)Nc1ncc(-c2cc(NS(=O)(=O)c3ccccc3)cnc2C)s1` [Example 1, N-[5-(5-benzenesulphonamido-2-methylpyridin-3-yl)thiazol-2-yl]acetamide], the IC50 was roughly 10 µM in assay [1], roughly 0.5 µM in assay [2] and roughly 5 µM in assay [3].
